Test system: P388
Experiment: Cytotoxicity against mouse P388 cells
Format: functional, cell-based

| Compound | IC50 |
| --- | --- |
| COc1ccc(C[C@H]2C(=O)N(C)[C@@H](C)C(=O)N(C)[C@H]3Cc4ccc(cc4)Oc4cc(ccc4OC)C[C@@H](C(=O)N(C)[C@H](C)C(=O)N(C)[C@@H](C)C(=O)N2C)N(C)C3=O)cc1 | 3.1 µM |
| COc1ccc(C[C@H]2C(=O)N(C)[C@@H](C)C(=O)N(C)[C@H]3Cc4ccc(cc4)Oc4cc(c(Br)cc4OC)C[C@@H](C(=O)N(C)[C@H](C)C(=O)N(C)[C@@H](C)C(=O)N2C)N(C)C3=O)cc1 | > 110 µM |
| COc1ccc(C[C@H]2C(=O)N(C)[C@@H](C)C(=O)N(C)[C@H]3Cc4ccc(cc4)Oc4cc(ccc4OC)C[C@@H](C(=O)N(C)[C@H](C)C(=O)N[C@@H](C)C(=O)N2C)N(C)C3=O)cc1 | 10 µM |
| COc1ccc(C[C@H]2C(=O)N[C@@H](C)C(=O)N(C)[C@H]3Cc4ccc(cc4)Oc4cc(ccc4OC)C[C@@H](C(=O)N[C@H](C)C(=O)N(N)[C@@H](C)C(=O)N2C)N(C)C3=O)cc1 | 0.0057 µM |
| COc1ccc(C[C@H]2C(=O)N(C)[C@@H](C)C(=O)N(C)[C@H]3Cc4ccc(cc4)Oc4cc(ccc4OC)C[C@@H](C(=O)N(C)[C@H](C)C(=O)N(N)[C@@H](C)C(=O)N2C)N(C)C3=O)cc1 | 49 µM |
| COc1ccc(C[C@H]2C(=O)N[C@@H](C)C(=O)N(C)[C@H]3Cc4ccc(cc4)Oc4cc(ccc4OC)C[C@@H](C(=O)N[C@H](C)C(=O)N[C@@H](C)C(=O)N2C)N(C)C3=O)cc1 | 0.0022 µM |
